# Measured values published in PubChem BioAssay AID1963424 (Molecular Pharmacology Branch, DTP, NCI, 2024).
# pIC50: −log10 of the molar value.
# Test system: 327498-153-R-J2-PDC complex spheroid growth, % test/control
# Assay: Anticancer human tumor 327498-153-R-J2-PDC patient-derived uterine carcinosarcoma cell line growth inhibition [Asc]
# Conditions: for pIC50: curve of first compound; for viability, T/C: stronger effect = lower value
# Procedure, shortened: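 Tumor cells were grown as multicellular spheroids with stromal HUVEC and mesenchymal stem cells and treated singly or in combination. Concentrations fell in half-log steps from the clinical Cmax, or from 10 microM where none was known.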
# [1] = second compound 0.1 µM, first compound 0.0316 µM
# [2] = second compound 0.1 µM, first compound 0.1 µM
# [3] = second compound 0.1 µM, first compound 0.316 µM
# [4] = second compound 0.1 µM, first compound 1 µM
# [5] = second compound 0.1 µM, first compound 3.16 µM
# [6] = second compound 0.1 µM, first compound 10 µM
# [7] = second compound 0.316 µM, first compound 0.0316 µM
# [8] = second compound 0.316 µM, first compound 0.1 µM
# [9] = second compound 0.316 µM, first compound 0.316 µM
# [10] = second compound 0.316 µM, first compound 1 µM
# [11] = second compound 0.316 µM, first compound 3.16 µM
# [12] = second compound 0.316 µM, first compound 10 µM
# [13] = second compound 1 µM, first compound 0.0316 µM
# [14] = second compound 1 µM, first compound 0.1 µM
# [15] = second compound 1 µM, first compound 0.316 µM
# [16] = second compound 1 µM, first compound 1 µM
# [17] = second compound 1 µM, first compound 3.16 µM
# [18] = second compound 1 µM, first compound 10 µM
# [19] = second compound 3.16 µM, first compound 0.0316 µM
# [20] = second compound 3.16 µM, first compound 0.1 µM
# [21] = second compound 3.16 µM, first compound 0.316 µM
# [22] = second compound 3.16 µM, first compound 1 µM
# [23] = second compound 3.16 µM, first compound 3.16 µM
# [24] = second compound 3.16 µM, first compound 10 µM
# [25] = second compound 10 µM, first compound 0.0316 µM
# [26] = second compound 10 µM, first compound 0.1 µM
# [27] = second compound 10 µM, first compound 0.316 µM
# [28] = second compound 10 µM, first compound 1 µM
# [29] = second compound 10 µM, first compound 3.16 µM
# [30] = second compound 10 µM, first compound 10 µM
# 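Note: spheroids exposed to compound for 7 days after 3 days of growth.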
# 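Throughout, for viability, T/C: 100% = DMSO vehicle control wells.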
smiles,measurement,setting,value
C=C(F)C(=O)N1CCN(c2nc(OCC3CCCN3C)nc3c2CCN(c2cccc4cccc(Cl)c24)C3)CC1CC#N (stereo not given) + Cc1c(S(C)(=O)=O)c(-c2cc(F)cc(N3CCN(c4ccc(NS(=O)(=O)c5ccc(NC(CCN6CCC(C(=O)OCCCP(=O)(O)O)CC6)CSc6ccccc6)c(S(=O)(=O)C(F)(F)F)c5)cc4)CC3)c2)c(-c2ccc(Cl)cc2)n1C(C)C,pIC50,second compound 0.1 µM,6.12
same,pIC50,second compound 0.316 µM,6.20
same,pIC50,second compound 1 µM,6.26
same,pIC50,second compound 3.16 µM,6.29
same,pIC50,second compound 10 µM,5.80
same,"viability, T/C",[1],63%
same,"viability, T/C",[2],57.9%
same,"viability, T/C",[3],62.2%
same,"viability, T/C",[4],46.4%
same,"viability, T/C",[5],5.7%
same,"viability, T/C",[6],0.14%
same,"viability, T/C",[7],66.6%
same,"viability, T/C",[8],63.4%
same,"viability, T/C",[9],56%
same,"viability, T/C",[10],43.6%
same,"viability, T/C",[11],3.41%
same,"viability, T/C",[12],0.12%
same,"viability, T/C",[13],63.9%
same,"viability, T/C",[14],58.5%
same,"viability, T/C",[15],55.9%
same,"viability, T/C",[16],40.8%
same,"viability, T/C",[17],3.33%
same,"viability, T/C",[18],0.11%
same,"viability, T/C",[19],68.1%
same,"viability, T/C",[20],60.1%
same,"viability, T/C",[21],50.7%
same,"viability, T/C",[22],41.3%
same,"viability, T/C",[23],2.02%
same,"viability, T/C",[24],0.12%
same,"viability, T/C",[25],164%
same,"viability, T/C",[26],150%
same,"viability, T/C",[27],130%
same,"viability, T/C",[28],82%
same,"viability, T/C",[29],3.02%
same,"viability, T/C",[30],0.19%
C=CC(=O)N1CCN(c2nc(=O)n(-c3c(C)ccnc3C(C)C)c3nc(-c4c(O)cccc4F)c(F)cc23)C(C)C1 (stereo not given) + Cc1c(S(C)(=O)=O)c(-c2cc(F)cc(N3CCN(c4ccc(NS(=O)(=O)c5ccc(NC(CCN6CCC(C(=O)OCCCP(=O)(O)O)CC6)CSc6ccccc6)c(S(=O)(=O)C(F)(F)F)c5)cc4)CC3)c2)c(-c2ccc(Cl)cc2)n1C(C)C,pIC50,second compound 0.1 µM,< 5.00
same,pIC50,second compound 0.316 µM,< 5.00
same,pIC50,second compound 1 µM,< 5.00
same,pIC50,second compound 3.16 µM,< 5.00
same,pIC50,second compound 10 µM,< 5.00
same,"viability, T/C",[1],78.9%
same,"viability, T/C",[2],68.5%
same,"viability, T/C",[3],66.7%
same,"viability, T/C",[4],69.5%
same,"viability, T/C",[5],63.4%
same,"viability, T/C",[6],64.8%
same,"viability, T/C",[7],73.5%
same,"viability, T/C",[8],71.6%
same,"viability, T/C",[9],62.4%
same,"viability, T/C",[10],63.2%
same,"viability, T/C",[11],60.2%
same,"viability, T/C",[12],56.4%
same,"viability, T/C",[13],83.2%
same,"viability, T/C",[14],71.9%
same,"viability, T/C",[15],60.7%
same,"viability, T/C",[16],71.2%
same,"viability, T/C",[17],62.1%
same,"viability, T/C",[18],64.7%
same,"viability, T/C",[19],84.6%
same,"viability, T/C",[20],72.4%
same,"viability, T/C",[21],62.4%
same,"viability, T/C",[22],67.4%
same,"viability, T/C",[23],65.4%
same,"viability, T/C",[24],48.3%
same,"viability, T/C",[25],179%
same,"viability, T/C",[26],164%
same,"viability, T/C",[27],164%
same,"viability, T/C",[28],136%
same,"viability, T/C",[29],167%
same,"viability, T/C",[30],151%
CCN1C(C(=O)NC23CCC(C(=O)O)(CC2)CC3)C(c2cccc(Cl)c2F)C2(C(=O)Nc3cc(Cl)ccc32)C12CCCCC2 (stereo not given) + Cc1c(S(C)(=O)=O)c(-c2cc(F)cc(N3CCN(c4ccc(NS(=O)(=O)c5ccc(NC(CCN6CCC(C(=O)OCCCP(=O)(O)O)CC6)CSc6ccccc6)c(S(=O)(=O)C(F)(F)F)c5)cc4)CC3)c2)c(-c2ccc(Cl)cc2)n1C(C)C,pIC50,second compound 0.1 µM,6.83
same,pIC50,second compound 0.316 µM,6.87
same,pIC50,second compound 1 µM,6.97
same,pIC50,second compound 3.16 µM,6.91
same,pIC50,second compound 10 µM,6.76
same,"viability, T/C","second compound 0.1 µM, first compound 0.00949 µM",92.5%
same,"viability, T/C","second compound 0.1 µM, first compound 0.03 µM",84.5%
same,"viability, T/C","second compound 0.1 µM, first compound 0.0949 µM",64.8%
same,"viability, T/C","second compound 0.1 µM, first compound 0.3 µM",26.6%
same,"viability, T/C","second compound 0.1 µM, first compound 0.949 µM",6.43%
same,"viability, T/C","second compound 0.1 µM, first compound 3 µM",2%
same,"viability, T/C","second compound 0.316 µM, first compound 0.00949 µM",87.4%
same,"viability, T/C","second compound 0.316 µM, first compound 0.03 µM",89%
same,"viability, T/C","second compound 0.316 µM, first compound 0.0949 µM",64.4%
same,"viability, T/C","second compound 0.316 µM, first compound 0.3 µM",17%
same,"viability, T/C","second compound 0.316 µM, first compound 0.949 µM",8.41%
same,"viability, T/C","second compound 0.316 µM, first compound 3 µM",2.1%
same,"viability, T/C","second compound 1 µM, first compound 0.00949 µM",91.4%
same,"viability, T/C","second compound 1 µM, first compound 0.03 µM",94.5%
same,"viability, T/C","second compound 1 µM, first compound 0.0949 µM",50.6%
same,"viability, T/C","second compound 1 µM, first compound 0.3 µM",17.8%
same,"viability, T/C","second compound 1 µM, first compound 0.949 µM",4.84%
same,"viability, T/C","second compound 1 µM, first compound 3 µM",1.36%
same,"viability, T/C","second compound 3.16 µM, first compound 0.00949 µM",78.9%
same,"viability, T/C","second compound 3.16 µM, first compound 0.03 µM",79%
same,"viability, T/C","second compound 3.16 µM, first compound 0.0949 µM",56.1%
same,"viability, T/C","second compound 3.16 µM, first compound 0.3 µM",23.8%
same,"viability, T/C","second compound 3.16 µM, first compound 0.949 µM",6.76%
same,"viability, T/C","second compound 3.16 µM, first compound 3 µM",1.6%
same,"viability, T/C","second compound 10 µM, first compound 0.00949 µM",166%
same,"viability, T/C","second compound 10 µM, first compound 0.03 µM",162%
same,"viability, T/C","second compound 10 µM, first compound 0.0949 µM",80.9%
same,"viability, T/C","second compound 10 µM, first compound 0.3 µM",23.5%
same,"viability, T/C","second compound 10 µM, first compound 0.949 µM",9.14%
same,"viability, T/C","second compound 10 µM, first compound 3 µM",1.51%
